Reference: PMC4986685 (Drug Design, Development and Therapy, 2016)

Tests used:
[1] = cited from earlier work
HbA1c = conditions: 5 mg dose daily for 12 weeks, patients with type 2 DM with inadequate glycemic control with diet and exercise alone; cited from earlier work
Safety assessment = assay type: in vivo, human; conditions: 36 healthy male subjects, 7-day treatments
[2] = system: active GLP-1, glucose, glucagon, insulin, and C-peptide; assay: Oral glucose tolerance test; assay type: in vivo, human; conditions: significantly smaller than baseline
[3] = cited from earlier work; remark: listed apart in the source

| Structure (SMILES) | Half-life ([1]; after a single administration, doses between 1.25 and 60 mg, first-in-human study) [h] | Dose dependence of pharmacokinetics ([1]; doses between 1.25 and 60 mg, single administration) | Tolerability ([1]; first-in-human study, single administration) | Reduction of mean HbA1c (HbA1c) [% point] | Number of AEs possibly related to the study drug(s) (Safety assessment; all AEs mild) [AEs] | AUC of glucose during OGTT relative to baseline [2] | Fraction eliminated by renal excretion [3] | Number of subjects with AEs possibly related to the study drug(s) (Safety assessment) [subjects] |
| --- | --- | --- | --- | --- | --- | --- | --- | --- |
| CC(C)(C)OC[C@@H]1C(=O)NCCN1C(=O)C[C@H](N)Cc1cc(F)c(F)cc1F [Evogliptin] | ≥ 30 | dose proportional pharmacokinetics | well tolerated | 0.66 | 14 | ~ 0.87 fold | – | – |
| CN(C)C(=N)N=C(N)N [Metformin, reference compound] | – | – | – | – | – | – | ~ 90 % of absorbed metformin | 24 |
